For two substances, IC50, aqueous solubility and minimum inhibitory concentrations results are on record in article PMC6193465 (Journal of the American Chemical Society, 2018).

For data set [1], the system named is prokaryotic protein synthesis. As to the kind of experiment: in vitro transcription-translation assay. It counts as biochemical. The settings on record: read-out: half-maximum inhibitory concentration, inhibition of prokaryotic protein synthesis.
The conditions of data set [2]: comparison value for 1; cited from earlier work.
A short description of another data set: aqueous solubility. It counts as physicochemical.
Data set [3] has as its system indicator bacterial strains. Briefly: antibacterial activity, minimum inhibitory concentrations. It counts as cell-based. The settings on record: range over the strains tested (Table S5).

Like-named read-outs stand apart in the source and are kept apart here. Where no end group is shown, it is not given here.

As a reminder, the aqueous solubility is the concentration that dissolves in the medium under given conditions. Take “IASASCTTCICTCSCSS (also: bicyclic or more (positions not given here)) [compound 1, thiostrepton A, reference compound]”: the IC50 in data set [1] was 500 ± 40 nM. In data set [2], the aqueous solubility is 21.88 ± 0.05 µM.
Regarding thiostrepton Aa [compound 7], the aqueous solubility in the data set “aqueous solubility” was 26.01 ± 0.05 µM. The values for the minimum inhibitory concentrations in data set [3] and in data set [3] (in molar units) were 0.018 to 0.098 µg/mL and 0.010 to 0.058 µM, respectively. The IC50 in data set [1] came to 260 ± 40 nM.
